SMILES strings stand for the structures. Marks after values point to notes of the source that are not given here.

Assay [1] addresses T1, hHINT1 (Homo sapiens, UniProt P49773). The assay is described as follows: Catalytic activity (velocity) of cloned, purified phosphoramidase with AMPNH2. The assay is classed as biochemical. From the text:
The enzyme responsible for hydrolysis of AZT amino acid phosphoramidates was cloned and characterized. After construction of a cDNA library from peripheral blood mononuclear cells (PBMCs) in T7Select10-3b phage, the phage display technique was employed to isolate the enzyme by affinity chromatography. After three rounds of phage selection and ampilification with an affinity column constructed from the L-tryptophan carbamate, DNA from ten selected plaques was amplified by PCR and sequenced. […] Hint1 is a member of the HIT protein superfamily, which consists of a recently identified adenosine 5′-monophosphoramide hydrolases from rabbit and yeast.
(§1) Velocity of the enzymes was determined at pH 7.2 at room temperature in the presence of 10 mM AMPNH2.

Another assay deals with T2, Rabbit HINT1 (Oryctolagus cuniculus, UniProt P80912).
T2 construct: made in house; host or cells: E. coli hinT deletion mutant
The following applies: Bieganowski et al, 2002; cited from earlier work.

Assay [2] concerns BB2-1 (-HINT) cell lysates. Nature of the assay: 31P NMR phosphoramidase activity in cell lysates of hinT deletion strain. It counts as biochemical, E. coli. Here is the method: (§2) Phosphoramidase activity in cell lysates was measured by the ^1H-decoupling mode of phosphorus-31 NMR spectroscopy (Varian VAC-300 spectrometer), which can clearly distinguish the substrate, AMP-NH2, and the product, adenosine 5′-monophosphate (AMP). NMR spectrometry is suitable for quantitation by integration of the area under the peak, which is proportional to the amount of nuclei present. The relative ratio of peak areas can be used to calculate the amount of turnover corrected based on a standard curve.
Cell lysates from E. coli Tuner(DE3)pLacI cells (Novagen) were obtained by treatment with lysozyme (1 mg/ml) and the DNA was precipitated by protamine sulfate followed by centrifugation to remove cell debris. The supernatant was dialyzed extensively against Buffer A (20 mM Tris (pH 7.0); 1 mM EDTA; 1 mM DTT, 0.01 mM PMSF) to remove cellular phosphates and nucleotides. […] The reactions were terminated by snap freezing in a dry ice/acetone slush bath and lyophilized for 5 h. The samples were then dissolved in NMR buffer (600 μL, 50 mM EDTA, 20 mM HEPES (pH 7.2), and 1 mM TMP (trimethylphosphate, internal standard)) and the insoluble portion was spun down by centrifugation at 12,500×g for 5 min. A ^31P NMR spectrum was then collected for the supernatant. For the low pH control experiment, 10 mM AMP-NH2 in reaction buffer (500 μL, pH 2.0) was incubated at 37° C. for 12 h and the 31p signal was detected under the same conditions.
The E. coli hinT gene in strain BW25113 was disrupted as previously described (Datsenko & Wanner, 2000, PNAS USA, 97:6640-6645). Plasmid pKD3 and primers 7024 and 7025 (Table 2) were used for amplification of the chloramphenicol resistance marker (Cm^r). Stable chloramphenicol resistant transformants of BW25113 were tested by PCR with primers 7026 and 7027 to confirm correct recombination of the Cm^r marker into the hinT locus. A strain that tested positive by PCR was named BB1. Strain BB3 was constructed by removing the antibiotic resistance marker using Red recombinase as described previously (Datsenko & Wanner, supra). The hinT gene was amplified from the chromosomal DNA of E. coli strain BW25113 with primers 7328 and 7329. The product of this reaction was cloned into Bluescript SK+ using EcoRI and BamHI sites included in the primers' sequences. The resulting plasmid was named pB429. […] Plasmids pB432 and pB433 were obtained by cloning HindIII-EcoRI fragments containing wild type and H101A mutated alleles of hinT from plasmids pB429 and pB431 into plasmid pACYC184. All E. coli transformations were performed by electroporation.
To determine if E. coli hinT is solely responsible of the observed lysates' phosphoramidase activity, a mutant strain, BB1, in which the hinT gene was replace with the chloramphenicol resistance marker, was constructed. The phosphoramidase activities of the wild-type E. coli BL21 Star strain and the mutant strain lysates were determined (Table 3). […] (Table 2). Therefore, the adenosine phosphoramidase activity observed for E. coli cell lysates appears to be totally dependent on hinT.

The target in the next assay is T3, ycfF (Escherichia coli, UniProt P0ACE7).
T3 construct: made in house
The assay is described as follows: Catalytic activity (velocity) of cloned, purified phosphoramidase with AMPNH2. It counts as biochemical, E. coli. The following applies: pH 7.2, room temperature, 10 mM AMPNH2. Here is the method:
The putative bacterial phosphoramidase was cloned and over-expressed as described for the human homologue, and found to be a nucleoside phosphoramidase.
as §1

Assay [3] has as its target T1, hHINT1. Nature of the assay: 31P NMR phosphoramidase assay of purified protein. The assay is classed as biochemical. Particulars: 10 mM substrate, pH 7.2, 22° C. On the procedure: as §2
(§3) Cell lysates from E. coli Tuner(DE3)pLacI cells (Novagen) were obtained by treatment with lysozyme (1 mg/ml) and the DNA was precipitated by protamine sulfate followed by centrifugation to remove cell debris. The supernatant was dialyzed extensively against Buffer A (20 mM Tris (pH 7.0); 1 mM EDTA; 1 mM DTT, 0.01 mM PMSF) to remove cellular phosphates and nucleotides. Phosphate free cell lysates (0.75 mg total protein) were incubated with 5 mM AMP-NH2 in 0.5 ml reaction buffer (0.5 mM MgCl2, 20 mM HEPES (pH 7.2)) at 37° C. for intervals of 15 min, 30 min, and 12 h. The reactions were terminated by snap freezing in a dry ice/acetone slush bath and lyophilized for 5 h. The samples were then dissolved in NMR buffer (600 μL, 50 mM EDTA, 20 mM HEPES (pH 7.2), and 1 mM TMP (trimethylphosphate, internal standard)) and the insoluble portion was spun down by centrifugation at 12,500×g for 5 min. A ^31P NMR spectrum was then collected for the supernatant. For the low pH control experiment, 10 mM AMP-NH2 in reaction buffer (500 μL, pH 2.0) was incubated at 37° C. for 12 h and the 31p signal was detected under the same conditions.
(§4) Five recombinant purified proteins were tested with three commercial available compounds (Sigma): AMP-NH2, adenosine 5′-monophosphomorpholidate (AMP-Mor), and guanosine 5′-monophosphomorpholidate (GMP-Mor) (FIG. 1). The compounds (10 mM) were incubated with proteins (2.5-10 μg) in the reaction buffer (500 μL, 0.5 mM MgCl2, 20 mM HEPES (pH 7.2)) at 22° C. for intervals of 36 and 66 min. The reactions were quenched by adding 5 M NaOH (20 μL), followed by snap freezing in a dry ice/acetone slush bath, and lyophilized. The sample preparation for ^31P NMR measurement was as described above for the cell-lysate experiment except that the pH was adjusted by the addition of 12 μL 6 M HCl before NMR spectra were collected.

The target of the next assay is T4, E. coli hinT-DHFR (Escherichia coli, UniProt P0ABQ4+P0ACE7).
T4 construct: made in house; host or cells: E. coli Tuner(DE3)pLacI
The assay is described as follows: 31P NMR phosphoramidase assay of purified protein. The assay is classed as biochemical. The following applies: 10 mM substrate, pH 7.2, 22° C. On the procedure: as §2, §3, §4

In the case of `Nc1ncnc2c1ncn2[C@@H]1O[C@H](COP(N)(=O)O)[C@@H](O)[C@H]1O` [AMP-NH2, Adenosine 5′-monophosphoramidate], the “Hydrolysis by over-expressed, purified human Hint1” value at hHINT1 [1] is “efficiently hydrolyze”. For the same molecule, the Velocity at hHINT1 [1] (pH 7.2, room temperature, 10 mM AMPNH2) is 5.46 nmol/µg/min; at Rabbit HINT1, 1.71^b nmol/μg/min; at ycfF, 14.19 nmol/µg/min. In addition, the “AMP formation with lysates of hinT deletion strain BB1” value in assay [2] is recorded as “no AMP formation could be observed”. Besides, the “Specific activity” value in assay [2] (0.2 mg protein, 30 min) was 0 nmol/mg/min; in assay [2] (0.5 mg protein, 30 min), 0 nmol/mg/min; in assay [2] (0.5 mg protein, 70 min), 0 nmol/mg/min; in assay [2] (0.5 mg protein, 1380 min) it was 0 nmol/mg/min; at hHINT1 [3], 196 ± 33 nmol nmol^−1 min^−1; on E. coli hinT-DHFR, 753 ± 2 nmol nmol^−1 min^−1. Besides, the Average specific activity in assay [2] (average) came out at 0 nmol/mg/min.

Values taken from patent publication US20060014193A1, “Nucleoside phosphoramidates and nucleoside phosphoramidases” (priority 2004, published 2006).
